Results taken from patent publication US6635642B1, “PARP inhibitors, pharmaceutical compositions comprising same, and methods of using same” (Guilford Pharmaceuticals Inc., priority 1997, dated 2003).
Where two headings read alike, the source gives them in different places.

What was measured:
[1] = molecular target: T1, purified recombinant human PARP (Homo sapiens, UniProt P09874); test: PARP enzyme assay ([3H]NAD incorporation, scintillation counting); type: biochemical
T1 construct: purchased Trevigen (Gaithersburg, Md.)
T1 sequence (P09874 whole entry): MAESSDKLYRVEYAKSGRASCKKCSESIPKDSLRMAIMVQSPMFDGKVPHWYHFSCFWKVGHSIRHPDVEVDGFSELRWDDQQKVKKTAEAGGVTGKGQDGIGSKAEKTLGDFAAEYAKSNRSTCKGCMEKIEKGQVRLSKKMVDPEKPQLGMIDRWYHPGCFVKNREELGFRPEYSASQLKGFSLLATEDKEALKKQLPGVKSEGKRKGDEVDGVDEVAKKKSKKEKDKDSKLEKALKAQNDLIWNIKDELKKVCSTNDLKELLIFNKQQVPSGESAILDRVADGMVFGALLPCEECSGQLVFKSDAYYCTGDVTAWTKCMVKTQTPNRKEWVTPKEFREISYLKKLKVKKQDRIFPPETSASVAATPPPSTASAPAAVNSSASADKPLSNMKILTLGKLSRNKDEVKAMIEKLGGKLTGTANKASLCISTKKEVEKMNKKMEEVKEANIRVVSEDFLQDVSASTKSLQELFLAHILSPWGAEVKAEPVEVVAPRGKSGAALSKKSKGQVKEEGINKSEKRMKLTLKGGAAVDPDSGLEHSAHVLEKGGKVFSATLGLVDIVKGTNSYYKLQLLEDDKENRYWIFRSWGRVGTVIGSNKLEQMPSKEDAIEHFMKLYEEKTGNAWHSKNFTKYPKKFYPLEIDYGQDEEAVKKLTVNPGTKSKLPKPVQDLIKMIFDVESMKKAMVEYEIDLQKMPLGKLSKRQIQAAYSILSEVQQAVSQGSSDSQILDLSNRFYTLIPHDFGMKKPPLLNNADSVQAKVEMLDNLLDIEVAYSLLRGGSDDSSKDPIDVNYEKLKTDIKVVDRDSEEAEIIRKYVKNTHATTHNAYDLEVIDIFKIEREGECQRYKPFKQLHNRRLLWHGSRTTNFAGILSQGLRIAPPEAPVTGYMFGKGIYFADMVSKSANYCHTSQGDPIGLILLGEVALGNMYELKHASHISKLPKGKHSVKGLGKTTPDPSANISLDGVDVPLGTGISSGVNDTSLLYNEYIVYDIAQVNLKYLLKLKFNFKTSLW
Description: The reaction was initiated by incubating the mixture at 25° C. After 15 minutes' incubation, the reaction was terminated by adding 500 microliters of ice cold 20% (w/v) trichloroacetic acid. The precipitate formed was transferred onto a glass fiber filter (Packard Unifilter-GF/B) and washed three times with ethanol. After the filter was dried, the radioactivity was determined by scintillation counting.

male Long-Evans rats = test: Focal cerebral ischemia (right distal MCA cauterization with bilateral temporary CCA occlusion), infarct volume by TTC staining; details: in vivo administration, focal cerebral ischemia model in the rat
Description: Focal cerebral ischemia was produced by cauterization of the right distal MCA (middle cerebral artery) with bilateral temporary common carotid artery occlusion in male Long-Evans rats for 90 minutes. All procedures performed on the animals were approved by the University Institutional Animal Care and Use Committee of the University of Pennsylvania. A total of 42 rats (weights: 230-340 g) obtained from Charles River were used in this study. The animals fasted overnight with free access to water prior to the surgical procedure.
Two hours prior to MCA occlusion, varying amounts (control, n=14; 5 mg/kg, n=7; 10 mg/kg, n=7; 20 mg/kg, n=7; and 40 mg/kg, n=7) of the compound, 3,4-dihydro-5-[4-(1-piperidinyl)-butoxy]-1(2H)-isoquinolinone (“DPQ”) were dissolved in dimethyl sulfoxide (DMSO) using a sonicator. […]
Two hours after MCA occlusion, the animals were given the same doses of the PARP inhibitor as in the pre-treatment. […] To avoid artifacts due to edema, the-damaged area was calculated by subtracting the area of the normal tissue in the hemisphere ipsilateral to the stroke from the area of the hemisphere contralateral to the stroke, by the method of Swanson et al., “A Semiautomated Method for Measuring Brain Infarct Volume”, J. Cereb. […] The total volume of infarction was calculated by summation of the damaged volume of the brain slices.

[2] = in vivo; cited from earlier work
[3] = system: human fibroblast cells lines (either W138 or BJ cells); test: Extending proliferative capacity and lifespan of cells; type: cell-based; details: untreated cells stop dividing after about 40 days
Description: At the time of subdivision, the media is aspirated, and the cells rinsed with phosphate buffer saline (PBS) and then trypsinized. The cells are counted with a Coulter counter and plated at a density of 10^5 cells per cm^2 in 6-well tissue culture plates in DMEM/199 medium supplemented with 10% bovine calf serum and varying amounts (0.10 uM, and 1 mM: from a 100×stock solution in DMEM/M199 medium) of a PARP inhibitor of Formula I as disclosed herein. This process is repeated every 7 days until the cell appear to stop dividing. The untreated (control) cells reach senescence and stop dividing after about 40 days in culture. […] The cells treated with 1 mM 3-AB will still divide after 60 days in culture.

rats = details: trinitrobenzene sulfonic acid in 50% ethanol; cited from earlier work
rabbits = details: cited from earlier work
[4] = PARP inhibition, unit inferred, read-out: Approximate IC50's
[5] = PARP inhibition, unit given as uM, read-out: Approximate IC50's
[6] = PARP inhibition, unit μM, read-out: Approximate IC50's

Structure (SMILES): O=C1NC(=O)c2ccc(SCCO)c3cccc1c23
- IC50 [1, 4]: 2.8 µM

Structure (SMILES): O=c1[nH]nc(CN2CCN(c3ccccc3)CC2)c2ccccc12
- IC50 [1, 4]: 4 µM

Structure (SMILES): O=C1NCC(c2ccccc2)Oc2ccccc21 (stereo not shown)
- IC50 [1, 4]: 1.9 µM

Structure (SMILES): O=c1[nH]c(-c2ccccc2)cc2ccccc12
- IC50 [1, 5]: 1.3 µM

Structure (SMILES): COC(=O)c1c[nH]c(=O)c2ccccc12
- IC50 [1, 4]: 1.1 µM

Structure (SMILES): Nc1ccc2c(c1)-c1n[nH]c(=O)c3cccc-2c13
- IC50 [1, 4]: 0.068 µM

Structure (SMILES): Nc1ccc2c3c(cccc13)C(=O)NC2=O
- IC50 [1]: 0.09 µM

Structure (SMILES): O=c1[nH]c2ccccc2c2ccccc12
- IC50 [1, 6]: 5.2 µM

Structure (SMILES): O=C1NCCc2c(OCCCCN3CCCCC3)cccc21 [drawing 52]
- IC50 [1]: 1.9 µM

Structure (SMILES): O=c1[nH]ccc2c([N+](=O)[O-])cccc12
- IC50 [1, 5]: 3.4 µM

Structure (SMILES): O=c1[nH]nc(-c2ccc(N3CCCCC3)c([N+](=O)[O-])c2)c2ccccc12
- IC50 [1, 4]: 0.3 µM

Structure (SMILES): O=c1[nH]c2ccc(Br)cc2c2ccccc12
- IC50 [1, 6]: 1.1 µM

Structure (SMILES): O=C1CNC(=O)c2cc(Cl)ccc2N1
- IC50 [1, 4]: 1.6 µM

Structure (SMILES): O=C1NCC2c3ccccc3Oc3cccc1c32 (stereo not shown)
- IC50 [1, 4]: 0.2 µM

Structure (SMILES): Nc1cccc2[nH]c(=O)c3ccccc3c12
- IC50 [1, 4]: 0.1 µM

Structure (SMILES): O=c1[nH]c2cc([N+](=O)[O-])ccc2c2ccccc12
- IC50 [1, 4]: 0.16 µM

Structure (SMILES): O=C1NCCc2c(OCCCCN3CCCCC3)cccc21 [DPQ, 3,4-dihydro-5-[4-(1-piperidinyl)-butoxy]-1(2H)-isoquinolinone]
- effect on infarct volume, overall (male Long-Evans rats): substantial reduction in infarct volume

Structure (SMILES): O=c1[nH]c2ccc([N+](=O)[O-])cc2c2ccccc12
- IC50 [1, 6]: 0.9 µM

Structure (SMILES): O=c1[nH]c2ccc(Cl)cc2c2ccccc12
- IC50 [1, 6]: 0.7 µM

Structure (SMILES): CN(C)c1ccc(-c2n[nH]c(=O)c3ccccc23)cc1[N+](=O)[O-]
- IC50 [1, 4]: 0.68 µM

Structure (SMILES): O=C(O)c1cccc2[nH]c(=O)c3ccccc3c12
- IC50 [1, 4]: 5.1 µM

Structure (SMILES): NC(=O)c1cccc2cccc(C(=O)O)c12 [drawing 59]
- IC50 [1, 4]: 0.25 µM

Structure (SMILES): CN(C)c1ccc(-c2n[nH]c(=O)c3ccccc23)cc1N
- IC50 [1, 4]: 0.22 µM

Structure (SMILES): Nc1cccc2c1[nH]c(=O)c1ccccc12
- IC50 [1, 4]: 0.76 µM

Structure (SMILES): O=c1[nH]nc2c3c(cccc13)Oc1ccccc1-2
- IC50 [1, 4]: 0.08 µM

Structure (SMILES): O=c1[nH]nc2c3c(cccc13)-c1ccccc1-2
- IC50 [1, 4]: 0.14 µM

Structure (SMILES): O=C1NC(=O)c2cc(O)cc3cccc1c23
- IC50 [1, 4]: 0.81 µM

Structure (SMILES): O=c1[nH]nc2c3c(cccc13)CCc1ccccc1-2
- IC50 [1, 4]: 0.4 µM

Structure (SMILES): CN(C)c1ccc2c(c1)[nH]c(=O)c1ccccc12
- IC50 [1, 4]: 0.31 µM

Structure (SMILES): O=c1[nH]nc(CN2CCN(c3ccc(Cl)cc3)CC2)c2ccccc12
- IC50 [1, 4]: 1.3 µM

Structure (SMILES): O=c1[nH]nc2c3c(cccc13)Oc1ccc([N+](=O)[O-])cc1-2
- IC50 [1, 4]: 0.062 µM

Structure (SMILES): NC(=O)c1cccc2cccc(C(=O)O)c12 [drawing 17]
- IC50 [1, 5]: 0.25 µM

Structure (SMILES): O=c1[nH]nc2c3c(cccc13)-c1ccc([N+](=O)[O-])cc1-2
- IC50 [1, 4]: 0.056 µM

Structure (SMILES): O=c1[nH]c2cc(F)ccc2c2ccccc12
- IC50 [1, 6]: 0.2 µM

Structure (SMILES): NC(=O)c1cccnc1 [nicotinamide]
- delayed, NO-mediated vascular failure in endotoxic shock [2]: protects against delayed, NO-mediated vascular failure

Structure (SMILES): O=c1[nH]c2cc3ccccc3cc2c2ccccc12
- IC50 [1, 6]: 100 µM

Structure (SMILES): NC(=O)c1cccc(N)c1 [Compound 3-AB, 3-aminobenzamide]
- effect on lifespan of the cells ([3]; 10 uM): little or no effect
- effect on lifespan of the cells ([3]; 100 uM): lengthen the lifespan of the cells
- effect on lifespan and proliferative capacity of the cells ([3]; 1 mM): dramatically increases the lifespan and proliferative capacity of the cells
- time in culture at which cells still divide ([3]; 1 mM): > 60 days
- inflammatory response in colitis (rats): reduced the inflammatory response
- reductions in infarct size in the heart (rabbits; 10 mg/kg single injection one minute before occlusion or before reperfusion): 32-42%

Structure (SMILES): O=c1[nH]nc(-c2ccc(Cl)cc2)c2ccccc12
- IC50 [1, 4]: 0.36 µM

Structure (SMILES): O=c1[nH]cc(Br)c2c(O)cccc12
- IC50 [1, 4]: 0.6 µM

Structure (SMILES): O=C1NC(=O)c2ccc(S(=O)(=O)O)c3cccc1c23
- IC50 [1, 4]: 4 µM

Structure (SMILES): O=C1NC(=O)c2ccc(Cl)c3cccc1c23
- IC50 [1, 4]: 0.46 µM

Structure (SMILES): Oc1cccc2c(O)nccc12 [1,5-dihydroxyisoquinoline]
- reduced infarct size (rabbits; 1 mg/kg single injection): 38-48%

Structure (SMILES): O=C1NCc2cccc3cccc1c23
- IC50 [1]: 0.54 µM

Structure (SMILES): O=c1[nH]nc2c3c(cccc13)Sc1ccccc1-2
- IC50 [1, 4]: 0.11 µM

Structure (SMILES): Nc1ccc2c(c1)[nH]c(=O)c1ccccc12
- IC50 [1, 6]: 4 µM

Structure (SMILES): O=C1NCC([N+](=O)[O-])c2ccccc21 (stereo not shown)
- IC50 [1, 5]: 1.6 µM

Structure (SMILES): Nc1ccc2c(c1)-c1n[nH]c(=O)c3cccc(c13)O2
- IC50 [1, 4]: 0.046 µM
